Data published in patent US4256742A, “Antidepressant oxime ethers of dibenzocycloheptaziridones” (E. I. Du Pont de Nemours and Company, priority 1979, dated 1981).
Counter-ions that a name gives are not always drawn. Like-named read-outs stand apart in the source and are kept apart here.

Columns and labels:
[1] = system: tetrabenazine-induced sedation and depression; experiment: Antitetrabenazine test: prevention of tetrabenazine-induced sedation and ptosis in mice; type: in vivo, mice (Carworth CF1 S female); conditions: tetrabenazine 32 mg/kg i.p. 30 min later, examined 1 h after antagonist; for ED50: Mus musculus
Protocol: This mouse test is predictive of human antidepressant response (Everett, "The Dopa Response Petentiation Test and Its Use in Screening for Antidepressant Drugs", pp. 164-167 in "Antidepressant Drugs" [Proceedings of the First International Symposium], S. Garattini and M. N. G. Dukes, eds. 1967).
Groups of 10 Carworth CF1 S female mice, 18-21 g each, were fasted 1.5 hours and were intubated with antagonist compounds at oral doses of 0, 0.33, 1, 3, 9, 27, and 81 mg/kg in 0.20 ml of 1% Methocel. The mice were challenged 30 minutes later with tetrabenazine (as the methane-sulfonate),32 mg/kg intraperitoneally (dissolved in 0.20 ml 0.05 M KCl at pH 2.0). One hour after antagonist (30 minutes after tetrabenazine), the mice were examined for signs of exploratory activity and ptosis (eyelid closure). Normal exploratory activity (relief from sedation) was recorded when a mouse lifted by the tail from a group of 10 in a testing box and placed on a stainless steel testing box lid (12.5"×8" with 0.33" mesh) either turned its head horizontally 30° in both directions or moved to the edge of the screen within 10 seconds after being placed on the screen. Relief from ptosis was recorded when exactly two seconds after placing the mouse facing the observer, lid closure was less than 50% in both eyes. Table 1 gives the results in mg/kg for examples of the invention and for the established standard antidepressant, amitriptyline.

[2] = Water solubility of the salts; type: physicochemical; conditions: salt as isolated
[3] = oral, female mice, normal exploratory activity (relief from sedation), read-out: ED50 in antitetrabenazine test, blockade of exploratory loss (Explor.)
[4] = oral, female mice, relief from ptosis, read-out: ED50 in antitetrabenazine test, blockade of ptosis
[5] = po, 1 h, read-out: ED50 in antitetrabenazine test, blockade of ptosis, oral, female mice, relief from ptosis
[6] = po, 1 h, read-out: ED50 in antitetrabenazine test, blockade of exploratory loss (Explor.), oral, female mice, normal exploratory activity (relief from sedation)

SMILES: CN(C)CCON=C1c2ccccc2C2NC2c2ccccc21 (stereo not shown) [Example 2, O-[2-(Dimethylamino)ethyl]oxime of 1a,10b-dihydrodibenzo[3,4,6,7]cyclohept[1,2-b]azirin-6(1H)-one]
- ED50 in antitetrabenazine test, blockade of exploratory loss (Explor.) ([1]; oral, female mice, normal exploratory activity (relief from sedation), listed as R^2=CH2 CH2 N(CH3)2, R^1=H, Z=--, 60 min): 1.1 mg/kg
- ED50 in antitetrabenazine test, blockade of ptosis ([1]; oral, female mice, relief from ptosis, listed as R^2=CH2 CH2 N(CH3)2, R^1=H, Z=--, 60 min): 0.65 mg/kg

SMILES: CN(C)CCON=C1c2ccccc2C2C(c3ccccc31)N2C (stereo not shown) [Example 16, Tartaric acid Salt of O-[2-(dimethylamino)ethyl]oxime of 1a, 10b-dihydrodibenzo[3,4,6,7]cyclohept[1,2-b]-N-methylazirin-6(1H)-one]
- ED50 in antitetrabenazine test, blockade of exploratory loss (Explor.) ([1]; oral, female mice, normal exploratory activity (relief from sedation), listed as R^2=CH2 CH2 N(CH3)2, R^1=CH3, Z=. Tartrate, 60 min): 2.7 mg/kg
- ED50 in antitetrabenazine test, blockade of ptosis ([1]; oral, female mice, relief from ptosis, listed as R^2=CH2 CH2 N(CH3)2, R^1=CH3, Z=. Tartrate, 60 min): 0.93 mg/kg
- water solubility (in words) [2]: watersoluble

SMILES: NCCON=C1c2ccccc2C2NC2c2ccccc21 (stereo not shown) [Example 7]
- ED50 in antitetrabenazine test, blockade of exploratory loss (Explor.) ([1]; oral, female mice, normal exploratory activity (relief from sedation), listed as R^2=CH2 CH2 NH2, R^1=H, Z=--, 60 min): 6.6 mg/kg
- ED50 in antitetrabenazine test, blockade of ptosis ([1]; oral, female mice, relief from ptosis, listed as R^2=CH2 CH2 NH2, R^1=H, Z=--, 60 min): 1.3 mg/kg

SMILES: NCCON=C1c2ccccc2C2NC2c2ccccc21 (stereo not shown) [Example 19]
- ED50 in antitetrabenazine test, blockade of exploratory loss (Explor.) ([1]; oral, female mice, normal exploratory activity (relief from sedation), listed as R^2=CH2 CH2 NH2, R^1=H, Z=drawing 41, 60 min): 14. mg/kg
- ED50 in antitetrabenazine test, blockade of ptosis ([1]; oral, female mice, relief from ptosis, listed as R^2=CH2 CH2 NH2, R^1=H, Z=drawing 41, 60 min): 3.4 mg/kg
- water solubility (in words) [2]: Water Soluble

SMILES: CN(C)CCC=C1c2ccccc2CCc2ccccc21 [AMTRIPTYLINE, amitriptyline, reference compound]
- ED50 [1, 3]: 2.6 mg/kg
- ED50 [1, 4]: 1.2 mg/kg

SMILES: CN(C)CCON=C1c2ccccc2C2NC2c2ccccc21 (stereo not shown) [Example 17]
- ED50 in antitetrabenazine test, blockade of exploratory loss (Explor.) ([1]; oral, female mice, normal exploratory activity (relief from sedation), listed as R^2=CH2 CH2 N(CH3)2, R^1=H, Z=. Tartrate, 60 min): 0.57 mg/kg
- ED50 in antitetrabenazine test, blockade of ptosis ([1]; oral, female mice, relief from ptosis, listed as R^2=CH2 CH2 N(CH3)2, R^1=H, Z=. Tartrate, 60 min): 0.33 mg/kg
- water solubility (in words) [2]: Water Soluble

SMILES: CN(C)CCON=C1c2ccccc2C2C(c3ccccc31)N2C (stereo not shown) [Example 3, O-[2-(Dimethylamino)ethyl]oxime of 1a,10b-Dihydrodibenzo-[3,4,6,7]cyclohept[1,2-b]-N-methylazirin-6(1H)-one]
- ED50 [1, 5]: 0.65 mg/kg
- ED50 in antitetrabenazine test, blockade of exploratory loss (Explor.) ([1]; oral, female mice, normal exploratory activity (relief from sedation), listed as R^2=CH2 CH2 N(CH3)2, R^1=CH3, Z=--, 60 min): 0.93 mg/kg

SMILES: c1ccc2c(c1)C(=NOCCN1CCOCC1)c1ccccc1C1NC21 (stereo not shown) [R^2=drawing 46; R^1=H; Z=--]
- ED50 [1, 6]: 16 mg/kg
- ED50 [1, 5]: 5.2 mg/kg

SMILES: c1ccc2c(c1)C(=NOCCN1CCCCC1)c1ccccc1C1NC21 (stereo not shown) [R^2=drawing 45; R^1=H; Z=--]
- ED50 [1, 6]: > 81 mg/kg
- ED50 [1, 5]: 8.3 mg/kg

SMILES: CNCCON=C1c2ccccc2C2NC2c2ccccc21 (stereo not shown) [Example 20]
- ED50 in antitetrabenazine test, blockade of exploratory loss (Explor.) ([1]; oral, female mice, normal exploratory activity (relief from sedation), listed as R^2=CH2 CH2 NHCH3, R^1=H, Z=drawing 42, 60 min): 6.2 mg/kg
- ED50 in antitetrabenazine test, blockade of ptosis ([1]; oral, female mice, relief from ptosis, listed as R^2=CH2 CH2 NHCH3, R^1=H, Z=drawing 42, 60 min): 1.3 mg/kg
- water solubility (in words) [2]: Water Soluble

SMILES: CCNCCON=C1c2ccccc2C2NC2c2ccccc21 (stereo not shown) [Example 14]
- ED50 [1, 6]: 9 mg/kg
- ED50 [1, 5]: 4.3 mg/kg

SMILES: CN(C)CCON=C1c2ccccc2C2C(c3ccccc31)N2CC1CC1 (stereo not shown) [Example 21]
- ED50 [1, 6]: 11.8 mg/kg
- ED50 [1, 5]: 10.8 mg/kg

SMILES: CCCCNCCON=C1c2ccccc2C2NC2c2ccccc21 (stereo not shown) [Example 15]
- ED50 [1, 6]: > 81 mg/kg
- ED50 [1, 5]: 13.3 mg/kg

SMILES: CN(C)CCON=C1c2ccccc2C2C(c3ccccc31)N2CC1CCC1 (stereo not shown) [Example 22]
- ED50 [1, 6]: 16 mg/kg
- ED50 [1, 5]: 10.8 mg/kg

SMILES: CN(C)CCON=C1c2ccccc2C2C(c3ccccc31)N2C(=O)c1ccccc1 (stereo not shown) [R^2=CH2 CH2 N(CH3)2; R^1=drawing 44; Z=--]
- ED50 [1, 3]: 5.5 mg/kg
- ED50 [1, 4]: 5.2 mg/kg

SMILES: CC(=O)N1C2c3ccccc3C(=NOCCN(C)C)c3ccccc3C21 (stereo not shown) [R^2=CH2 CH2 N(CH3)2; R^1=drawing 43; Z=--]
- ED50 [1, 3]: 19 mg/kg
- ED50 [1, 4]: 13 mg/kg

SMILES: CN(C)CCON=C1c2ccccc2C2NC2c2ccccc21 (stereo not shown) [Example 18]
- ED50 in antitetrabenazine test, blockade of exploratory loss (Explor.) ([1]; oral, female mice, normal exploratory activity (relief from sedation), listed as R^2=CH2 CH2 N(CH3)2, R^1=H, Z=. HCl, 60 min): 2.2 mg/kg
- ED50 in antitetrabenazine test, blockade of ptosis ([1]; oral, female mice, relief from ptosis, listed as R^2=CH2 CH2 N(CH3)2, R^1=H, Z=. HCl, 60 min): 1.0 mg/kg
- water solubility (in words) [2]: Water Soluble

SMILES: CN(C)CCCON=C1c2ccccc2C2NC2c2ccccc21 (stereo not shown) [Example 9]
- ED50 [1, 6]: 32 mg/kg
- ED50 [1, 5]: 18 mg/kg

SMILES: CNCCON=C1c2ccccc2C2NC2c2ccccc21 (stereo not shown) [Example 8]
- ED50 in antitetrabenazine test, blockade of exploratory loss (Explor.) ([1]; oral, female mice, normal exploratory activity (relief from sedation), listed as R^2=CH2 CH2 NHCH3, R^1=H, Z=--, 60 min): 1.9 mg/kg
- ED50 in antitetrabenazine test, blockade of ptosis ([1]; oral, female mice, relief from ptosis, listed as R^2=CH2 CH2 NHCH3, R^1=H, Z=--, 60 min): 0.57 mg/kg
